Columns and labels:
Type in all cases: in vivo
[1] = system: Puccinia recondita f. sp. tritici; test: Test B: wheat leaf rust, preventive spray on wheat seedlings; details: 100 = 100% disease control, 0 = no control; for pest or weed control at 50 ppm: Puccinia recondita, read-out: Test B disease control rating
Excerpt: (§1) General protocol for preparing test suspensions for Tests A-F: the test compounds were first dissolved in acetone in an amount equal to 3% of the final volume and then suspended at the desired concentration (in ppm) in acetone and purified water (50/50 mix by volume) containing 250 ppm of the surfactant PEG400 (polyhydric alcohol esters). The resulting test suspensions were then used in Tests A-F.
(§2) The test solution was sprayed to the point of run-off on wheat seedlings. The following day the seedlings were inoculated with a spore suspension of Puccinia recondita f. sp. tritici (the causal agent of wheat leaf rust) and incubated in a saturated atmosphere at 20° C. for 24 h, and then moved to a growth chamber at 20° C. for 7 days, after which time visual disease ratings were made.
(§3) A rating of 100 indicates 100% disease control and a rating of 0 indicates no disease control (relative to the controls). A dash (-) indicates the compound was not tested.

[2] = system: Blumeria graminis f. sp. tritici; test: Test C: wheat powdery mildew, preventive spray on wheat seedlings; details: 100 = 100% disease control, 0 = no control; for pest or weed control at 50 ppm: Blumeria graminis, read-out: Test C disease control rating
Excerpt: as §1
The test suspension was sprayed to the point of run-off on wheat seedlings. The following day the seedlings were inoculated with a spore dust of Blumeria graminis f. sp. tritici, (also known as Eysiphe graminis f. sp. tritici, the causal agent of wheat powdery mildew) and incubated in a growth chamber at 20° C. for 8 days, after which time visual disease ratings were made.
as §3

Zymoseptoria tritici = test: Test A: wheat leaf blotch, preventive spray on wheat seedlings; details: 100 = 100% disease control, 0 = no control; for pest or weed control at 50 ppm: Zymoseptoria tritici, read-out: Test A disease control rating
Excerpt: as §1
The test solution was sprayed to the point of run-off on wheat seedlings. The following day the seedlings were inoculated with a spore suspension of Zymoseptoria tritici (the causal agent of wheat leaf blotch) and incubated in a saturated atmosphere at 24° C. for 48 h, and then moved to a growth chamber at 20° C. for 17 days, after which time disease ratings were made.
as §3

Phakopsora pachyrhizi = test: Test D: Asian soybean rust, preventive spray on soybean seedlings; details: 100 = 100% disease control, 0 = no control; for pest or weed control at 50 ppm: Phakopsora pachyrhizi, 216 h, read-out: Test D disease control rating
Excerpt: as §1
as §2, with “soybean” for “wheat”, “Phakopsora pachyrhizi” for “Puccinia recondita f. sp. tritici”, “Asian soybean” for “wheat leaf”, “22°” for “20°”, “h” for “h,”, “8” for “7”
as §3

Alternaria solani = test: Test F: tomato early blight, preventive spray on tomato seedlings; details: 100 = 100% disease control, 0 = no control; for pest or weed control at 50 ppm: Alternaria solani, read-out: Test F disease control rating
Excerpt: as §1
(§4) The test suspension was sprayed to the point of run-off on tomato seedlings. The following day the seedlings were inoculated with a spore suspension of Alternaria solani (the causal agent of tomato early blight) and incubated in a saturated atmosphere at 27° C. for 48 h, and then moved to a growth chamber at 20° C. for 3 days, after which time visual disease ratings were made.
as §3

Botrytis cinerea = test: Test E: tomato Botrytis, preventive spray on tomato seedlings; details: 100 = 100% disease control, 0 = no control; for pest or weed control at 50 ppm: Botrytis cinerea, read-out: Test E disease control rating
Excerpt: as §1
as §4, with “Botrytis cinerea” for “Alternaria solani”, “Botrytis)” for “early blight)”, “20°” for “27°”, “24°” for “20°”
as §3

Compound: Cn1cc(-c2cc(F)ccc2F)c(-c2ccc(F)cc2Cl)c(Cl)c1=O [Compound 24]
- Test B disease control rating ([1]; 50 ppm): 96%
- Test C disease control rating ([2]; 50 ppm): 0%
- Test A disease control rating (Zymoseptoria tritici; 50 ppm): 96%
- Test D disease control rating (Phakopsora pachyrhizi; 50 ppm): 0%
- Test F disease control rating (Alternaria solani; 50 ppm): 0%
- Test E disease control rating (Botrytis cinerea; 50 ppm): 85%

Compound: COc1cc(OC)cc(-c2cn(C)c(=O)c(Cl)c2-c2ccc(F)cc2F)c1 [Compound 25]
- Test B disease control rating ([1]; 50 ppm): 100%
- Test C disease control rating ([2]; 50 ppm): 0%
- Test A disease control rating (Zymoseptoria tritici; 50 ppm): 100%
- Test D disease control rating (Phakopsora pachyrhizi; 50 ppm): 84%
- Test F disease control rating (Alternaria solani; 50 ppm): 99%
- Test E disease control rating (Botrytis cinerea; 50 ppm): 82%

Compound: Cn1cc(-c2cc(F)c(F)cc2F)c(-c2ccc(F)cc2Cl)c(Cl)c1=O [Compound 26]
- Test B disease control rating ([1]; 50 ppm): 86%
- Test C disease control rating ([2]; 50 ppm): 0%
- Test A disease control rating (Zymoseptoria tritici; 50 ppm): 99%
- Test D disease control rating (Phakopsora pachyrhizi; 50 ppm): 0%
- Test F disease control rating (Alternaria solani; 50 ppm): 0%
- Test E disease control rating (Botrytis cinerea; 50 ppm): 83%

Compound: Cn1cc(-c2ccccc2C(F)(F)F)c(-c2ccc(F)cc2Cl)c(Cl)c1=O [Compound 27]
- Test B disease control rating ([1]; 50 ppm): 100%
- Test C disease control rating ([2]; 50 ppm): 0%
- Test A disease control rating (Zymoseptoria tritici; 50 ppm): 98%
- Test D disease control rating (Phakopsora pachyrhizi; 50 ppm): 25%
- Test F disease control rating (Alternaria solani; 50 ppm): 0%
- Test E disease control rating (Botrytis cinerea; 50 ppm): 58%

Compound: COc1ccc(F)c(-c2cn(C)c(=O)c(Cl)c2-c2ccc(F)cc2Cl)c1 [Compound 28]
- Test B disease control rating ([1]; 50 ppm): 100%
- Test C disease control rating ([2]; 50 ppm): 97%
- Test A disease control rating (Zymoseptoria tritici; 50 ppm): 100%
- Test D disease control rating (Phakopsora pachyrhizi; 50 ppm): 87%
- Test F disease control rating (Alternaria solani; 50 ppm): 99%
- Test E disease control rating (Botrytis cinerea; 50 ppm): 98%

Compound: COc1ccc(Cl)c(-c2cn(C)c(=O)cc2-c2ccc(F)cc2Cl)c1 [Compound 31]
- Test B disease control rating ([1]; 50 ppm): 96%
- Test C disease control rating ([2]; 50 ppm): 0%
- Test A disease control rating (Zymoseptoria tritici; 50 ppm): 96%
- Test D disease control rating (Phakopsora pachyrhizi; 50 ppm): 0%
- Test F disease control rating (Alternaria solani; 50 ppm): 0%
- Test E disease control rating (Botrytis cinerea; 50 ppm): 99%

Compound: COc1ccc(Cl)c(-c2cn(C)c(=O)c(Cl)c2-c2ccc(F)cc2Cl)c1 [Compound 32, 3-chloro-4-(2-chloro-4-fluorophenyl)-5-(2-chloro-5-methoxyphenyl)-1-methyl-2(1H)-pyridinone]
- pest or weed control at 50 ppm ([1]; 50 ppm): 100%
- pest or weed control at 50 ppm ([2]; 50 ppm): 99%
- pest or weed control at 50 ppm (Zymoseptoria tritici; 50 ppm): 100%
- pest or weed control at 50 ppm (Phakopsora pachyrhizi; 50 ppm): 99%
- pest or weed control at 50 ppm (Alternaria solani; 50 ppm): 100%
- pest or weed control at 50 ppm (Botrytis cinerea; 50 ppm): 100%

Compound: COc1ccc(Cl)c(-c2cn(C)c(=O)c(Br)c2-c2ccc(F)cc2Cl)c1 [Compound 33, 3-bromo-4-(2-chloro-4-fluorophenyl)-5-(2-chloro-5-methoxyphenyl)-1-methyl-2(1H)-pyridinone]
- pest or weed control at 50 ppm ([1]; 50 ppm): 100%
- pest or weed control at 50 ppm ([2]; 50 ppm): 99%
- pest or weed control at 50 ppm (Zymoseptoria tritici; 50 ppm): 100%
- pest or weed control at 50 ppm (Phakopsora pachyrhizi; 50 ppm): 89%
- pest or weed control at 50 ppm (Alternaria solani; 50 ppm): 100%
- pest or weed control at 50 ppm (Botrytis cinerea; 50 ppm): 100%

Compound: Cn1cc(-c2cc(F)ccc2Cl)c(-c2ccc(F)cc2Cl)cc1=O [Compound 34]
- Test B disease control rating ([1]; 50 ppm): 68%
- Test C disease control rating ([2]; 50 ppm): 48%
- Test A disease control rating (Zymoseptoria tritici; 50 ppm): 100%
- Test D disease control rating (Phakopsora pachyrhizi; 50 ppm): 59%
- Test F disease control rating (Alternaria solani; 50 ppm): 0%
- Test E disease control rating (Botrytis cinerea; 50 ppm): 98%

Compound: COc1cc(OC)c(Cl)c(-c2cn(OCC#N)c(=O)c(Cl)c2-c2ccc(F)cc2Cl)c1 [Compound 35]
- Test B disease control rating ([1]; 50 ppm): 100%
- Test C disease control rating ([2]; 50 ppm): 73%
- Test A disease control rating (Zymoseptoria tritici; 50 ppm): 84%
- Test D disease control rating (Phakopsora pachyrhizi; 50 ppm): 92%
- Test F disease control rating (Alternaria solani; 50 ppm): 0%
- Test E disease control rating (Botrytis cinerea; 50 ppm): 94%

Compound: C#CCOn1cc(-c2cc(OC)cc(OC)c2Cl)c(-c2ccc(F)cc2Cl)c(Cl)c1=O [Compound 36, 3-chloro-5-(2-chloro-3,5-dimethoxyphenyl)-4-(2-chloro-4-fluorophenyl)-1-(2-propynyloxy)-2(1H)-pyridinone]
- pest or weed control at 50 ppm ([1]; 50 ppm): 99%
- pest or weed control at 50 ppm ([2]; 50 ppm): 0%
- pest or weed control at 50 ppm (Zymoseptoria tritici; 50 ppm): 98%
- pest or weed control at 50 ppm (Phakopsora pachyrhizi; 50 ppm): 96%
- pest or weed control at 50 ppm (Alternaria solani; 50 ppm): 0%
- pest or weed control at 50 ppm (Botrytis cinerea; 50 ppm): 96%

Compound: COc1cc(OC)c(Cl)c(-c2cn(OCC(F)F)c(=O)c(Cl)c2-c2ccc(F)cc2Cl)c1 [Compound 37]
- Test B disease control rating ([1]; 50 ppm): 99%
- Test C disease control rating ([2]; 50 ppm): 0%
- Test A disease control rating (Zymoseptoria tritici; 50 ppm): 68%
- Test D disease control rating (Phakopsora pachyrhizi; 50 ppm): 87%
- Test F disease control rating (Alternaria solani; 50 ppm): 0%
- Test E disease control rating (Botrytis cinerea; 50 ppm): 88%

Compound: COc1cc(OC)c(Cl)c(-c2cn(OC(F)F)c(=O)c(Cl)c2-c2ccc(F)cc2Cl)c1 [Compound 38, 3-chloro-5-(2-chloro-3,5-dimethoxyphenyl)-4-(2-chloro-4-fluorophenyl)-1-(difluoromethoxy)-2(1H)-pyridinone]
- pest or weed control at 50 ppm ([1]; 50 ppm): 100%
- pest or weed control at 50 ppm ([2]; 50 ppm): 73%
- pest or weed control at 50 ppm (Zymoseptoria tritici; 50 ppm): 96%
- pest or weed control at 50 ppm (Phakopsora pachyrhizi; 50 ppm): 75%
- pest or weed control at 50 ppm (Alternaria solani; 50 ppm): 0%
- pest or weed control at 50 ppm (Botrytis cinerea; 50 ppm): 96%

Compound: COc1cc(OC)c(Cl)c(-c2cn(O)c(=O)c(Cl)c2-c2ccc(F)cc2Cl)c1 [Compound 39, 3-chloro-5-(2-chloro-3,5-dimethoxyphenyl)-4-(2-chloro-4-fluorophenyl)-1-hydroxy-2(1H)-pyridinone]
- pest or weed control at 50 ppm ([1]; 50 ppm): 86%
- pest or weed control at 50 ppm ([2]; 50 ppm): 0%
- pest or weed control at 50 ppm (Zymoseptoria tritici; 50 ppm): 69%
- pest or weed control at 50 ppm (Phakopsora pachyrhizi; 50 ppm): 77%
- pest or weed control at 50 ppm (Alternaria solani; 50 ppm): 0%
- pest or weed control at 50 ppm (Botrytis cinerea; 50 ppm): 56%

Compound: Cn1cc(-c2cc(F)ccc2Cl)c(-c2ccc(F)cc2F)c(Cl)c1=O [Compound 40]
- Test B disease control rating ([1]; 50 ppm): 100%
- Test C disease control rating ([2]; 50 ppm): 98%
- Test A disease control rating (Zymoseptoria tritici; 50 ppm): 100%
- Test D disease control rating (Phakopsora pachyrhizi; 50 ppm): 92%
- Test F disease control rating (Alternaria solani; 50 ppm): 99%
- Test E disease control rating (Botrytis cinerea; 50 ppm): 94%

Compound: Cn1cc(-c2ccc(F)cc2F)c(-c2ccc(F)cc2F)c(Cl)c1=O [Compound 41]
- Test B disease control rating ([1]; 50 ppm): 96%
- Test C disease control rating ([2]; 50 ppm): 96%
- Test A disease control rating (Zymoseptoria tritici; 50 ppm): 100%
- Test D disease control rating (Phakopsora pachyrhizi; 50 ppm): 69%
- Test F disease control rating (Alternaria solani; 50 ppm): 91%
- Test E disease control rating (Botrytis cinerea; 50 ppm): 91%

Compound: Cn1cc(-c2ccc(F)cc2Cl)c(-c2ccc(F)cc2F)c(Cl)c1=O [Compound 42]
- Test B disease control rating ([1]; 50 ppm): 99%
- Test C disease control rating ([2]; 50 ppm): 93%
- Test A disease control rating (Zymoseptoria tritici; 50 ppm): 100%
- Test D disease control rating (Phakopsora pachyrhizi; 50 ppm): 73%
- Test F disease control rating (Alternaria solani; 50 ppm): 93%
- Test E disease control rating (Botrytis cinerea; 50 ppm): 94%

Compound: COc1ccc(Cl)c(-c2cn(C)c(=O)c(C)c2-c2ccc(F)cc2Cl)c1 [Compound 43, 4-(2-chloro-4-fluorophenyl)-5-(2-chloro-5-methoxyphenyl)-1,3-dimethyl-2(1H)-pyridinone]
- pest or weed control at 50 ppm ([1]; 50 ppm): 100%
- pest or weed control at 50 ppm ([2]; 50 ppm): 100%
- pest or weed control at 50 ppm (Zymoseptoria tritici; 50 ppm): 100%
- pest or weed control at 50 ppm (Phakopsora pachyrhizi; 50 ppm): 97%
- pest or weed control at 50 ppm (Alternaria solani; 50 ppm): 100%
- pest or weed control at 50 ppm (Botrytis cinerea; 50 ppm): 98%

Compound: Cn1c(Cl)c(-c2ccc(F)cc2Cl)c(-c2c(F)cccc2F)c(Cl)c1=O [Compound 44]
- Test B disease control rating ([1]; 50 ppm): 93%
- Test C disease control rating ([2]; 50 ppm): 79%
- Test A disease control rating (Zymoseptoria tritici; 50 ppm): 98%
- Test D disease control rating (Phakopsora pachyrhizi; 50 ppm): 96%
- Test F disease control rating (Alternaria solani; 50 ppm): 0%
- Test E disease control rating (Botrytis cinerea; 50 ppm): 40%

Compound: CCOn1cc(-c2cc(OC)cc(OC)c2)c(-c2ccc(F)cc2Cl)c(Cl)c1=O [Compound 45]
- Test B disease control rating ([1]; 250 ppm): 91%
- Test C disease control rating ([2]; 250 ppm): 72%
- Test A disease control rating (Zymoseptoria tritici; 250 ppm): 100%
- Test D disease control rating (Phakopsora pachyrhizi; 250 ppm): 0%
- Test F disease control rating (Alternaria solani; 250 ppm): 0%
- Test E disease control rating (Botrytis cinerea; 250 ppm): 97%

Compound: CCOn1cc(-c2cc(OC)cc(OC)c2Cl)c(-c2ccc(F)cc2Cl)c(Cl)c1=O [Compound 46]
- Test B disease control rating ([1]; 250 ppm): 100%
- Test C disease control rating ([2]; 250 ppm): 92%
- Test A disease control rating (Zymoseptoria tritici; 250 ppm): 99%
- Test D disease control rating (Phakopsora pachyrhizi; 250 ppm): 99%
- Test F disease control rating (Alternaria solani; 250 ppm): 47%
- Test E disease control rating (Botrytis cinerea; 250 ppm): 88%

— US20240215577A1, “FUNGICIDAL PYRIDONES” (FMC Corporation, priority 2021, published 2024)
